Here are results for 34 compounds from patent US10065967B2, “Compounds that are ERK inhibitors” (Merck Sharp & Dohme Corp., priority 2013, dated 2018).

pIC50: −log10 of the molar value. Counter-ions that a name gives are not always drawn.

Chain of Active Human ERK2 (hERK2) (P28482 whole entry): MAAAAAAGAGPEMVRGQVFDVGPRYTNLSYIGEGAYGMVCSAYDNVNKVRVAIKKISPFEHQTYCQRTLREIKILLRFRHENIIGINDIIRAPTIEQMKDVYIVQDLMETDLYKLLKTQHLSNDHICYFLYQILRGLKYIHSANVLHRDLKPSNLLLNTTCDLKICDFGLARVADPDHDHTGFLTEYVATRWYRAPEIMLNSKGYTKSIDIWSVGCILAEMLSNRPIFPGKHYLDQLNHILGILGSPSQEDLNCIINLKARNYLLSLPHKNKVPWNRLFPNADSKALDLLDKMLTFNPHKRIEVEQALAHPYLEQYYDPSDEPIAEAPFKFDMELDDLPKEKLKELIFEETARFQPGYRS

For this assay, the target named is Active Human ERK2 (hERK2) (Homo sapiens (Human), UniProt P28482). Description: Active Human ERK2 (hERK2) Activity Assay (IMAP-FP). The assay is classed as biochemical. Conditions: phosphorylated active hERK2 0.5 nM, 30 μM ATP, 10 point titration, read-out: ERK 2 Human average IC50. Here is the method: Assays Active Human ERK2 (hERK2) Activity Assay:
Activated ERK2 activity was determined in an IMAP-FP assay (Molecular Devices). Using this assay format, the potency (IC50) of each compound was determined from a 10 point (1:3 serial dilution, 3 μM starting compound concentration) titration curve using the following outlined procedure. […] Following a 15 minute compound & enzyme incubation, each reaction was initiated by the addition of 10 μL kinase buffer containing 2.45 μM ERK2 IMAP substrate peptides (2.25 μM-unlabeled peptide and 200 nM-labeled peptide, and 75 μM ATP. The final reaction in each well of 25 μL consists of 0.5 nM hERK2, 900 nM unlabeled peptide, 80 nM labeled-peptide, and 30 μM ATP. Phosphorylation reactions were allowed to proceed for 60 minutes and were immediately quenched by the addition of 60 μL IMAP detection beads (1:1000 dilutions) in IMAP binding buffer (Molecular Devices) with 24 mM NaCl. Plates were read on EnVision reader after 60 minutes binding equilibration using Fluorescence Polarization protocol (Perkin Elmer).
The pIC50 is the negative decadic logarithm of the IC50, by convention in mol/L. For `Cn1cc(-c2n[nH]c3cc4[nH]c(=O)ccc4cc23)cn1` [Example 4, 3-(1-methyl-1H-pyrazol-4-yl)-1,8-dihydro-7H-pyrazolo[4,3-g]quinolin-7-one], the pIC50 is 9.52.

Regarding `O=c1ccc2cc3cn[nH]c3cc2[nH]1` [Example 5, 1,8-dihydro-7H-pyrazolo[4,3-g]quinolin-7-one], the negative-log IC50 (pIC50) is 6.64.

Take `Cn1cc(-c2n[nH]c3cc4[nH]c(=O)c(Br)cc4cc23)cn1` [Example 6, 6-bromo-3-(1-methyl-1H-pyrazol-4-yl)-1,8-dihydro-7H-pyrazolo[4,3-g]quinolin-7-one trifluoroacetate]: the pIC50 is 9.52.

Take `Cn1cc(-c2n[nH]c3cc4[nH]c(=O)c(Cc5ccccc5)cc4cc23)cn1` [Example 7, 6-benzyl-3-(1-methyl-1H-pyrazol-4-yl)-1,8-dihydro-7H-pyrazolo[4,3-g]quinolin-7-one]: the pIC50 was 9.52.

Consider `Cc1cc(-c2n[nH]c3cc4c(cc23)CCCC(=O)N4)ccn1` [Example 9, 3-(2-methylpyridin-4-yl)-5,6,7,9-tetrahydroazepino[3,2-f]indazol-8(1H)-one], for which the negative-log IC50 (pIC50) was 6.60.

Turning to `Cc1cc(-c2n[nH]c3cc4c(cc23)CN([C@H](C)c2ccc(F)cc2)C(=O)N4)ccn1` [Example 10, (R)-6-(1-(4-fluorophenyl)ethyl)-3-(2-methylpyridin-4-yl)-5,6-dihydro-1H-pyrazolo[4,3-g]quinazolin-7(8H)-one], the pIC50 is 9.52.

As for `Cc1cc(-c2n[nH]c3cc4c(cc23)CCN(Cc2ccc(F)cc2)C(=O)N4O)ccn1` [Example 11, 7-(4-fluorobenzyl)-9-hydroxy-3-(2-methylpyridin-4-yl)-5,6,7,9-tetrahydro-[1,3]diazepino[5,4-f]indazol-8(1H)-one], the pIC50 is 6.34.

`Cc1cc(-c2n[nH]c3cc4c(cc23)CCN([C@H](C)c2ccc(F)cc2)C(=O)N4)ccn1` [Example 12, (R)-7-(1-(4-fluorophenyl)ethyl)-3-(2-methylpyridin-4-yl)-5,6,7,9-tetrahydro-[1,3]diazepino[5,4-f]indazol-8(1H)-one]: the pIC50 is 7.14.

On to `Cc1cc(-c2n[nH]c3cc4c(cc23)CNC(=O)N4)ccn1` [Example 13, 3-(2-methylpyridin-4-yl)-5,6-dihydro-1H-pyrazolo[4,3-g]quinazolin-7(8H)-one], for which the negative-log IC50 (pIC50) is 9.22.

As for `Cc1cc(-c2n[nH]c3cc4c(cc23)CN(Cc2ccccc2)C(=O)N4)ccn1` [Example 14, 6-benzyl-3-(2-methylpyridin-4-yl)-5,6-dihydro-1H-pyrazolo[4,3-g]quinazolin-7(8H)-one], the pIC50 is 9.30.

`C[C@H](c1ccccc1)n1c(=O)[nH]c2cc3[nH]nc(-c4ccc5nnn(C)c5c4)c3cc2c1=O` [Example 15, (R)-3-(1-methyl-1H-benzo[d][1,2,3]triazol-6-yl)-6-(1-phenylethyl)-1H-pyrazolo[4,3-g]quinazoline-5,7(6H,8H)-dione]: the pIC50 was 8.77.

On to `Cc1cc(-c2n[nH]c3cc4c(cc23)CN(C2CCCOc3ccccc32)C(=O)N4)ccn1` (stereo not shown) [Example 16, 3-(2-methylpyridin-4-yl)-6-(2,3,4,5-tetrahydrobenzo[b]oxepin-5-yl)-5,6-dihydro-1H-pyrazolo[4,3-g]quinazolin-7(8H)-one], for which the negative logarithm of the IC50 (pIC50) is 8.32.

As to `COC[C@H](c1ccc(F)cc1)N1Cc2cc3c(-c4ccnc(C)c4)n[nH]c3cc2NC1=O` [Example 17], the negative-log IC50 (pIC50) was 9.15.

In the case of `COc1ccccc1CN1Cc2cc3c(-c4ccnc(C)c4)n[nH]c3cc2NC1=O` [Example 18, 6-(2-methoxybenzyl)-3-(2-methylpyridin-4-yl)-5,6-dihydro-1H-pyrazolo[4,3-g]quinazolin-7(8H)-one], the pIC50 was 9.10.

Consider `COc1ccccc1CCN1Cc2cc3c(-c4ccnc(C)c4)n[nH]c3cc2NC1=O` [Example 19, 6-(2-methoxyphenethyl)-3-(2-methylpyridin-4-yl)-5,6-dihydro-1H-pyrazolo[4,3-g]quinazolin-7(8H)-one], for which the negative logarithm of the IC50 (pIC50) is 8.64.

Take `Cc1cc(-c2n[nH]c3cc4c(cc23)CN([C@H](C)c2ccccc2)C(=O)N4)ccn1` [Example 20, (R)-3-(2-methylpyridin-4-yl)-6-(1-phenylethyl)-5,6-dihydro-1H-pyrazolo[4,3-g]quinazolin-7(8H)-one 2,2,2-trifluoroacetate]: the pIC50 is 9.52.

For `Cc1cc(-c2n[nH]c3cc4c(cc23)CN(Cc2cccc(C)n2)C(=O)N4)ccn1` [Example 21, 6-((6-methylpyridin-2-yl)methyl)-3-(2-methylpyridin-4-yl)-5,6-dihydro-1H-pyrazolo[4,3-g]quinazolin-7(8H)-one], the negative logarithm of the IC50 (pIC50) is 9.22.

For the compound `Cc1cc(-c2n[nH]c3cc4c(cc23)CN([C@@H]2CCCCc3ccccc32)C(=O)N4)ccn1` [Example 22, (R)-3-(2-methylpyridin-4-yl)-6-(6,7,8,9-tetrahydro-5H-benzo[7]annulen-5-yl)-5,6-dihydro-1H-pyrazolo[4,3-g]quinazolin-7(8H)-one], the pIC50 was 7.62.

Consider `Cc1cc(-c2n[nH]c3cc4[nH]c(=O)n([C@H](C)c5ccccc5)c(=O)c4cc23)ccn1` [Example 23, (R)-3-(2-methylpyridin-4-yl)-6-(1-phenylethyl)-1H-pyrazolo[4,3-g]quinazoline-5,7(6H,8H)-dione], for which the pIC50 was 8.43.

Regarding `O=c1ccc2cc3c(N4CCOCC4)n[nH]c3cc2[nH]1` [Example 24, 3-morpholino-1H-pyrazolo[4,3-g]quinolin-7(8H)-one], the pIC50 is 7.92.

With `O=c1ccc2cc3c(N4CCCCC4)n[nH]c3cc2[nH]1` [Example 25, 3-(piperidin-1-yl)-1H-pyrazolo[4,3-g]quinolin-7(8H)-one], the negative-log IC50 (pIC50) was 7.38.

For the compound `C[C@H](c1ccccc1)N1Cc2cc3c(-c4ccc(C#N)nc4)n[nH]c3cc2NC1=O` [Example 27, (R)-5-(7-oxo-6-(1-phenylethyl)-5,6,7,8-tetrahydro-1H-pyrazolo[4,3-g]quinazolin-3-yl)picolinonitrile], the pIC50 is 8.00.

As for `COc1ncc(-c2n[nH]c3cc4c(cc23)CN([C@H](C)c2ccccc2)C(=O)N4)cn1` [Example 28, (R)-3-(2-methoxypyrimidin-5-yl)-6-(1-phenylethyl)-5,6-dihydro-1H-pyrazolo[4,3-g]quinazolin-7(8H)-one formate], the negative-log IC50 (pIC50) was 9.22.

With `CC(=O)Nc1n[nH]c2cc3c(cc12)CN([C@H](C)c1ccccc1)C(=O)N3` [Example 34, (R)-N-(7-oxo-6-(1-phenylethyl)-5,6,7,8-tetrahydro-1H-pyrazolo[4,3-g]quinazolin-3-yl)acetamide], the pIC50 is 8.64.

With `COc1n[nH]c2cc3c(cc12)CN([C@H](C)c1ccccc1)C(=O)N3` [Example 35, (R)-3-methoxy-6-(1-phenylethyl)-5,6-dihydro-1H-pyrazolo[4,3-g]quinazolin-7(8H)-one], the pIC50 was 6.94.

Consider `COCCOc1n[nH]c2cc3c(cc12)CN([C@H](C)c1ccccc1)C(=O)N3` [Example 36, (R)-3-(2-methoxyethoxy)-6-(1-phenylethyl)-5,6-dihydro-1H-pyrazolo[4,3-g]quinazolin-7(8H)-one], for which the pIC50 was 8.19.

In the case of `C[C@H](c1ccccc1)N1Cc2cc3c(OCCO)n[nH]c3cc2NC1=O` [Example 37, (R)-3-(2-hydroxyethoxy)-6-(1-phenylethyl)-5,6-dihydro-1H-pyrazolo[4,3-g]quinazolin-7(8H)-one], the pIC50 was 7.70.

As to `C[C@H](c1ccccc1)N1Cc2cc3c(OC4CCOC4)n[nH]c3cc2NC1=O` (stereo partly drawn) [Example 38, 6-((R)-1-phenylethyl)-3-((tetrahydrofuran-3-yl)oxy)-5,6-dihydro-1H-pyrazolo[4,3-g]quinazolin-7(8H)-one], the pIC50 is 7.68.

As to `C[C@H](c1ccccc1)N1Cc2cc3c(OC4CCOCC4)n[nH]c3cc2NC1=O` [Example 39, (R)-6-(1-phenylethyl)-3-((tetrahydro-2H-pyran-4-yl)oxy)-5,6-dihydro-1H-pyrazolo[4,3-g]quinazolin-7(8H)-one], the pIC50 was 8.00.

In the case of `C[C@H](c1ccccc1)N1Cc2cc3c(C4CC4)n[nH]c3cc2NC1=O` [Example 40, (R)-3-cyclopropyl-6-(1-phenylethyl)-5,6-dihydro-1H-pyrazolo[4,3-g]quinazolin-7(8H)-one], the pIC50 was 7.62.

Consider `C[C@H](c1ccccc1)N1Cc2cc3c(-c4ccnc(F)c4)n[nH]c3cc2NC1=O` [Example 41, (R)-3-(2-fluoropyridin-4-yl)-6-(1-phenylethyl)-5,6-dihydro-1H-pyrazolo[4,3-g]quinazolin-7(8H)-one], for which the negative logarithm of the IC50 (pIC50) was 9.52.

As to `C[C@H](c1ccccc1)N1Cc2cc3c(N4CCOCC4)n[nH]c3cc2NC1=O` [Example 42, (R)-3-morpholino-6-(1-phenylethyl)-5,6-dihydro-1H-pyrazolo[4,3-g]quinazolin-7(8H)-one], the negative logarithm of the IC50 (pIC50) is 8.05.

As to `C[C@H](c1ccccc1)N1Cc2cc3c(I)n[nH]c3cc2NC1=O` [Example 43, (R)-3-iodo-6-(1-phenylethyl)-5,6-dihydro-1H-pyrazolo[4,3-g]quinazolin-7(8H)-one], the pIC50 is 7.32.

Take `C[C@H](c1ccccc1)N1Cc2cc3c(N4CCc5ncsc5C4)n[nH]c3cc2NC1=O` [Example 47, (R)-3-(6,7-dihydrothiazolo[5,4-c]pyridin-5(4H)-yl)-6-(1-phenylethyl)-5,6-dihydro-1H-pyrazolo[4,3-g]quinazolin-7(8H)-one]: the pIC50 is 7.62.
